The source of these data is patent US9353082B2, “Pharmaceutical compounds” (BIAL—PORTELA & CA, S.A., priority 2008, dated 2016).

In this assay the target is T1, FAAH (Mus musculus, UniProt O08914).
T1 construct: A fragment of liver, left lung lobe and brain without cerebellum were removed; from tissue; host or cells: male NMRI mice; brain (without cerebellum) and liver homogenates
T1 sequence (O08914 1-579): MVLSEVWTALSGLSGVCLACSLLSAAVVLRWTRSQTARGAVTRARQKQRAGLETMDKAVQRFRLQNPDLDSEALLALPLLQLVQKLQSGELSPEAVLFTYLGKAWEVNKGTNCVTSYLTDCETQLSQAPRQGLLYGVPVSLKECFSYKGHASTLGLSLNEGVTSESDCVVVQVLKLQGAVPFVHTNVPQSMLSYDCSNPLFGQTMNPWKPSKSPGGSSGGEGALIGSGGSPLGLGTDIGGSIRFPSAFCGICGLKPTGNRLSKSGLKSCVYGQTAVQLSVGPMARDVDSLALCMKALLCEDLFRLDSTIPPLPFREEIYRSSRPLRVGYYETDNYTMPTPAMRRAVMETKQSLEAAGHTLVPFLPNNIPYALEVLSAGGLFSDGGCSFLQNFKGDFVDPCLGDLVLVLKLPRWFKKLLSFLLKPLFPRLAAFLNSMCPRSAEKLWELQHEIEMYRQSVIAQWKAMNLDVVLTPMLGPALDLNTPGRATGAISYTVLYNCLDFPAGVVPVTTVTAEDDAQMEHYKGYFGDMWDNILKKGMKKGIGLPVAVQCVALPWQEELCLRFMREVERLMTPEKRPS
The assay can be described thus: In vivo FAAH inhibition after oral dosing, remaining activity in brain homogenate (BRh, central nervous tissue). Also on record: species or system NMRI mice. The following applies: 8 h. In short, it runs like this:
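Male NMRI mice, fasted overnight, got 30 or 3 mg/kg compound orally (0.5% CMC suspension or water) and were compared with vehicle controls. Brain (no cerebellum) and liver homogenates were incubated with 2 μM AEA plus 5 nM 3H-AEA at 37 °C, 10 min for brain and 7 min for liver. Remaining FAAH activity is % of vehicle after blank subtraction.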

Molecules are shown by their SMILES.

With `COc1cccc(-c2cn(C(=O)N3CCCc4ccccc43)cn2)c1` [Compound 39, (3,4-dihydroquinolin-1(2H)-yl)(4-(3-methoxyphenyl)-1H-imidazol-1-yl)methanone], the “In Vivo BRh 3 mg/kg 8 h, remaining FAAH activity” value (brain homogenate, 3 mg/kg) is 120.6 % of control. Further, the “FAAH BRh 3 mg · kg · 8 h” value (in vivo, mouse brain, 3 mg/kg oral, remaining enzymatic activity) is listed as 120.6 % of control.
